Reference: PMC11530130, “Peripherally restricted PICK1 inhibitor mPD5 ameliorates pain behaviors in murine inflammatory and neuropathic pain models” (JCI Insight, 2024)
Where “and” joins values, the source holds several entries; their conditions need not be identical. Identical values can stand only once.

Test system: mice, spared nerve injury (SNI) model
Assay: Single exposure place preference (sePP), SNI mice
Format: in vivo, mouse
Parameters: time spent in the paired compartment, individual mice: reference not given here
Experimental: Single exposure place preference.
Initial perception of the drugs was measured by single exposure place preference experiments performed in an elongated three compartment apparatus (67.5 cm x 24 cm) with a biased design of different floor textures and wall patterns and a neutral zone in the middle. We have […]
compartment and that a single exposure of psychostimulants in the grey compartment sufficiently changes the preference towards that compartment (9-11). For further details of the setup, we refer to (10). Experiments lasted three days with exposure sessions on days one and two and a preference test on day three. […]
Mice were left in Med-Associates square behavioral chambers (27 cm x 27 cm) to freely roam around for 60 min, four days in a row. […] On day three, both control and SNI mice were placed directly in the chambers and recorded for 60 min. On day four, control mice were injected s.c. with PBS, and SNI mice were injected with either 10 μmol/kg mPD5 or PBS immediately before being placed in the chambers and recorded for 60 min. The recordings were analyzed using the Avisoft SASLab Pro software (Version 5.02.07, Avisoft Bioacoustics) as described in (12), applying a fast fourier transformation (FFT) (1024 FTT length, 100% frame size, Blackman window, and 87.5% time window overlap). […]

**Q.** Which results are given for `CCCCCCCCCCCCCC(=O)N(CCOCCOCCC(=O)N[C@@H](Cc1c[nH]cn1)C(=O)N[C@@H](Cc1c[nH]c2ccccc12)C(=O)N[C@@H](CC(C)C)C(=O)N[C@@H](CCCCN)C(=O)N[C@H](C(=O)O)C(C)C)CCOCCOCCC(=O)N[C@@H](Cc1c[nH]cn1)C(=O)N[C@@H](Cc1c[nH]c2ccccc12)C(=O)N[C@@H](CC(C)C)C(=O)N[C@@H](CCCCN)C(=O)N[C@H](C(=O)O)C(C)C` [mPD5, myristoyl-NPEG4-(HWLKV)2]?
**A.** time spent in the paired compartment, individual mice (SNI mice conditioned with 30 μmol/kg): 0.9648 and 1.369 and 0.722 and 0.8519 and 0.9815 and 0.6715 and 0.5887 and 0.7233 and 1.085 and 1.235 and 0.7664; time spent in the paired chamber compared to PBS (sePP) (SNI, male mice, s.c. 30 μmol/kg): did not change the time spent in the paired chamber
